Patent US20070155771A1, “Methods and means for treating protein conformational disorders” (priority 2003, published 2007)

Experiments:
[1] = test system: COS-7 cells expressing an exon 1 fragment of the HD gene with 74 glutamines (Q74); experiment: Aggregate formation and abnormal cell nuclei in transiently transfected COS-7 cells expressing Q74; assay type: cell-based, African green monkey; conditions: 48 hours after transfection
From the text: (§1) Mammalian expression vectors comprising EGFP (pEGFP-C1, Clontech) fused at its C-terminus with a Huntington's Disease gene exon 1 fragment with 74 polyglutamine repeats (Q74) or a polyalanine stretch of 19 repeats (A19) were used (Rankin, J. et al (2000) Biochem. J., 348, 15-19; Narain, Y. et al (1999) J. Med. Genet., 36, 739-746.). A Haemagglutinin-tagged Huntington's Disease gene exon 1 fragment with 74 polyglutamine repeats in pHM6 vector (Q74-HA) was also used. The PC12 stable lines expressing exon 1 of Huntington gene were as described in Wyttenbach A. et al., (2001) Hum. Mol. Genet. 10 1829-45.
(§2) African green monkey kidney cells (COS-7) were grown in Dulbecco's Modified Eagle Medium (DMEM, Sigma) supplemented with 10% Fetal Bovine Serum (FBS), 100 U/ml Penicillin/Streptomycin, 2 mM L-Glutamine and 1 mM Sodium Pyruvate at 37° C., 5% Carbon dioxide. The cells were grown on coverslips in six-well plates for immunofluorescence analysis, or were directly grown in six-well plates to 60-80% confluency for 24 hours for western blot analysis. Transfection was done using LipofectAMINE reagent (Invitrogen) using the manufacturer's protocol. The transfection mixture was replaced by normal culture medium after 5 hours incubation at 37° C. and the transfected cells were analysed by immunofluorescence or immunoblot 48 hours after transfection. The cells were left untreated or treated with 10 mM 3-methyl adenine (3-MA, Sigma), 0.5 mM N^6, N^6, Dimethyl adenosine (DMA, Sigma), 0.2 μg/ml Rapamycin (Sigma), 200 nM Bafilomycin A1 (BafA1, Sigma), 10 μM Lactacystin (Sigma) or 10 μM epoxomicin (Affinity research products ltd.) for 15 hours before fixation for immunofluorescence or processing for western blots. DMA, BafA1, epoxomicin and rapamycin were dissolved in DMSO and 3-MA and lactacystin were in water. Equal amounts of water or DMSO were added to the untreated controls, where relevant. The cells on coverslips were rinsed with 1×PBS, fixed with 4% paraformaldehyde in 1×PBS for 20 min and mounted in antifadent supplemented with 4′,6-diamidino-2-phenylindole (DAPI, 3 μg/ml, Sigma) to allow visualisation of nuclear morphology. The PC12 stable cells were maintained at 75 μg/ml hygromycin in standard medium consisting of high glucose DMEM (Sigma) with 100 U/ml penicillin/streptomycin, 2 mM L-glutamine (Invitrogen), 10% heat-inactivated horse serum (Invitrogen), 5% Tet-approved fetal bovine serum (FBS) (Clontech) and 100 μg/ml G418 (Invitrogen) at 37° C., 10% CO2. The cells were seeded at 1-2×10^5 per well in 6-well plates and were induced with 1 μg/ml doxycycline (Sigma) for 8 hours. The expression of transgenes was switched off by removing doxycycline from the medium. Cells were either left untreated or treated with 3-MA, BafA1, epoxomicin, lactacystin, rapamycin, 10 μg/ml cycloheximide (Sigma) or cycloheximide+rapamycin at the concentrations specified above for 24, 48 or 72 hours and the medium with the inhibitors/activator changed every 24 hours. The cells were then scraped off from the wells into 1.5 ml eppendorf tubes, pelleted at 8000 rpm and washed twice with 1×PBS. They were either fixed with 4% paraformaldehyde for 20 minutes and mounted in DAPI over coverslips on glass slides or processed for western blot analysis. CCI-779 was supplied by Wyeth Pharmaceuticals (Philadelphia). For tissue culture experiments, a stock solution of 1M in ethanol was prepared the day of experiment and was diluted in the appropriate medium
(§3) The pellets for westerns from COS-7 or PC12 cells were lysed on ice in Laemmli buffer (62.5 mM Tris-HCl pH6.8, 5% β-mercaptoethanol, 10% glycerol, and 0.01% bromophenol blue) for 30 min in the presence of protease inhibitors (Roche Diagnostics). The lysates were subjected to SDS-PAGE (10%) electrophoresis and proteins transferred onto nitrocellulose membrane (Amersham Pharmacia Biotech). […]

[2] = test system: COS-7 cells expressing EGFP fused to 19 alanines (A19); experiment: Aggregate formation and abnormal cell nuclei in transiently transfected COS-7 cells expressing A19; assay type: cell-based, African green monkey; conditions: immunofluorescence; 48 hours after transfection; drug 15 hours
From the text: as §1, §2, §3

[3] = test system: PC12 cell line expressing EGFP-tagged HD exon 1 with Q74; experiment: Turnover of Q74 protein and aggregates in stable doxycycline-inducible PC12 cells after switching expression off; assay type: cell-based, rat
Method: as §2
The pellets for westerns from COS-7 or PC12 cells were lysed on ice in Laemmli buffer (62.5 mM Tris-HCl pH6.8, 5% β-mercaptoethanol, 10% glycerol, and 0.01% bromophenol blue) for 30 min in the presence of protease inhibitors (Roche Diagnostics). The lysates were subjected to SDS-PAGE (10%) electrophoresis and proteins transferred onto nitrocellulose membrane (Amersham Pharmacia Biotech). The primary antibodies used include mouse monoclonal anti-GFP antibody (8362-1, Clontech) at 1:2000, rabbit monoclonal anti-actin antibody (A2066, Sigma) at 1:3000, mouse monoclonal anti-tubulin antibody (Clone DM 1A, Sigma) at 1:1000 and mouse monoclonal anti-HA antibody (Covance) at 1:1000. Blots were probed with Horse Radish Peroxidase (HRP) conjugated anti-mouse or anti-rabbit IgG (Bio Rad) at 1:2000. Bands were visualised using the ECL detection reagent (Amersham). […]

[4] = test system: human wild-type, A30P and A53T α-synuclein; experiment: α-Synuclein degradation in inducible PC12 cell lines (western blot), all forms; assay type: cell-based
From the text: Human α-synuclein with a HA tag at the N-terminus and a 6His tag at the C-terminus was amplified from pHM6α-synuclein constructs (Furlong, R. A. et a; 1 (2000) Biochem. J. 346, 577581) and inserted into pTRE2 hyg vector (Clontech) using Nhe I/Sal I sites. Constructs were confirmed by sequencing before use. The pTRE2 hygα-synuclein construct and pTettTS (Clontech) were cotransfected into PC12 TetOn cells (Clontech), using Lipofectamine (Invitrogen) and Plus Reagent (Invitrogen). Single colonies were isolated using cloning cylinders (Sigma) and cells were grown and tested for α-synuclein expression upon induction. Cell lines were subjected to a further round of purification from single colonies to ensure that lines were pure.
PC12 cells were grown in Dulbecco's modified eagle's medium (DMEM, Sigma) supplemented with 10% horse serum (Sigma), 5% fetal bovine serum (Sigma), 100 U/ml penicillin/streptomycin, 2 mM L-glutamine, […] G418 (Invitrogen) and […] hygromycin B (Calbiochem) at 37° C., 10% CO2. To induce differentiation, cells were grown in media containing 1% horse serum and 100 ng/ml nerve growth factor (2.5S, Upstate Biotechnology) and incubated for about 5 days. Cells were induced to express synuclein with […] doxycycline (Sigma).
Cells were induced for 24 hours and then washed twice with media to remove doxycycline. Then cells were incubated in […] media containing either 10 mM 3-methyladenine (3MA, Sigma), 200 nM bafilomycin A1 (Sigma), […] rapamycin (Sigma), […] lactacystin (Sigma), […] epoxomicin (Affinity Research Products Ltd) or carrier controls (water or DMSO (Sigma)). 3MA and lactacystin were made up in water and rapamycin, epoxomicin and bafilomycin were dissolved in DMSO.
After 24 hours the media was replaced with fresh media plus drug and after a further 24 hours cell pellets were collected and stored at −80° C. until required.
Cell pellets were collected and stored at −80° C. until needed. Cells were lysed on ice in lysis buffer: 1% TritonX100, 20 mM TRIS pH7.5, 137 mM NaCl, 1 mM EGTA, 10% glycerol, 1.5 mM MgCl2 and protease inhibitor cocktail (Complete, Roche).
Samples were then mixed with loading buffer: 62.5 mM TRIS pH 6.8, 2% SDS, 10% glycerol, 0.05% bromophenol blue, 100 mM dithiothreitol and 700 mM β-mercaptoethanol and boiled before loading onto 14% denaturing polyacrylamide gels.
Each lane was loaded with protein from a similar number of cells, based on cell counting at the time of seeding. Proteins were transferred onto Hybond ECL nitrocellulose membrane (Amersham). α-Synuclein was detected with an antiHA monoclonal antibody (Covance) at 1:1000 dilution with 4-18 hours incubation. HRP conjugated antimouse antibody (Amersham) at 1:2000 dilution was then added to blots and antibody was detected using ECL blotting reagents (Amersham) and Hyperfilm ECL (Amersham). Blots were stripped and then reprobed for α-tubulin (Sigma) at 1:1000 dilution.
PC12 cell lines as described above (i.e. mitotic and neuronally differentiated wild-type, A53T and A30P PC12 lines) were induced for 24 hours, then doxycycline was removed and the drugs were added for 48 hours. The trends we observed were similar in cells treated with drugs for 24 and 72 hours.

## CN(C)c1ncnc2c1ncn2[C@@H]1O[C@H](CO)[C@@H](O)[C@H]1O [DMA, N^6,N^6-dimethyladenosine]
[1]; immunofluorescence, drug 15 hours
  appearance (size, number) of Q74 aggregates in cells with aggregates: Identical aggregate phenotypes
[2]
  appearance (size, number) of A19 aggregates in cells with aggregates: Identical aggregate phenotypes

## C[C@@H]1C[C@@H]([C@H](O)CC2CC(=O)NC(=O)C2)C(=O)[C@@H](C)C1 [cycloheximide]
[3]; 8 h ON then 72 h OFF with drug, 0.2 μg/ml rapamycin, 10 μg/ml cycloheximide
  cell fluorescence (EGFP-Q74 clearance): increased
[3]; 8 h ON then 72 h OFF with drug, vs time-matched control
  numbers of aggregate containing cells / visible aggregates: increased

## CC(=O)N[C@@H](CSC(=O)[C@]1([C@@H](O)C(C)C)NC(=O)[C@H](C)[C@@H]1O)C(=O)O [lactacystin]
[3]; 8 h ON then 48 h OFF with 10 μM epoxomicin or 10 μM lactacystin, vs control
  number of aggregate-containing cells: increased Q74 aggregation
[1]; drug for 15 hours before fixing: 10 mM 3-MA, 0.5 mM DMA, 200 nM BafA1, 0.2 μg/ml rapamycin, 10 μM epoxomicin, 10 μM lactacystin, vs untreated
  proportions of Q74-expressing cells with aggregates: increases
[4]
  cell death or overt aggregate formation: did not cause increased cell death or overt aggregate formation
[4]; induced 24 hours, doxycycline removed, drug 48 hours, cycling and differentiated cells, 0.2 mg/ml rapamycin, 10 mM lactacystin, 10 mM epoxomicin [sic]
  α-synuclein levels: increase
